The test has as its system INS-1E cytokine-induced caspase-3/7, Caspase-Glo luminescence, 48 h. The experiment in a line: suppression of cytokine-driven beta-cell apoptosis – INS-1E rat cells, luminescence, orthogonal assay for beta-cell apoptosis protection project, dose response (AID 463206).

The AC50 is the concentration at which the activity in the assay is half-maximal.

The source made the active and inactive calls.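 The calls were made as follows: active = caspase luminescence falls with dose and the half-maximal concentration AC50 from the fitted curve is at or below a set limit; inconclusive = flat fit at 30 to 70% signal loss, or invalid fit; inactive = AC50 above the limit, or signal rises instead.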

Regarding `CCCCn1c(NS(=O)(=O)c2ccccc2)c(S(=O)(=O)c2ccc(C)cc2)c2nc3ccccc3nc21`, the AC50 is > 12 µM (inactive). Next, `Cc1ccccc1OCCn1c(C)nc2ccccc21`: > 26 µM (inactive). Next, `CCC1=NN(C(=O)c2ccccc2O)C(O)(c2ccccc2)C1` (stereo unspecified): > 26 µM (inactive); `Cc1ccc(Nc2c(-c3ccccn3)nc3cc(C)ccn23)cc1`: > 26 µM (inactive); `COc1ccccc1/C=N\Nc1cc(C)nc(-n2nc(C)cc2C)n1`: > 26 µM (inactive). Regarding `CC(=O)N(Cc1ccc(F)cc1)C1=C(NCCc2ccccc2)C(=O)c2ccccc2C1=O`, the AC50 is > 26 µM (inactive). As for `c1ccc2c(c1)ncn2CCCCOc1ccc2c(c1)CCC2`, the AC50 was > 26 µM (inactive). Under `CCC1CCCCN1S(=O)(=O)c1ccc(NC(=O)c2nc(S(C)(=O)=O)ncc2Cl)cc1` (stereo unspecified) stands > 26 µM (inactive).

Regarding `COc1ccc(OC)c(NC(=O)CSc2nnc(-c3cccnc3)s2)c1`, the AC50 was > 26 µM (inactive). Consider `Cc1ccc(-c2nn(-c3ccccc3)cc2/C=C/C(=O)Nc2cccc(S(N)(=O)=O)c2)cc1`, for which the AC50 was > 26 µM (inactive).

Consider `CCOc1ccc(OCc2ccc(C(=O)NN=Cc3ccc[nH]3)cc2)cc1`, for which the AC50 was > 26 µM (inactive). Regarding `Clc1ccc(SCc2cc(N3CCOCC3)nc(-c3ccccn3)n2)cc1`, the AC50 was > 26 µM (inactive). With `CCC(=O)NC(c1ccc(C)cc1)c1cc([N+](=O)[O-])c2cccnc2c1O` (stereo unspecified), the AC50 was > 26 µM (inactive). `O=C(Nc1nc(-c2ccccc2)cs1)c1ccccc1NS(=O)(=O)c1ccc(F)cc1`: the AC50 is > 26 µM (inactive).

`CC1CC(=O)N(c2ccc(Br)cc2)C(=O)C1`: the AC50 was > 26 µM (inactive).

Take `CCN(CC)c1ccc(/C=N/Nc2nc(C)cc(C)n2)c(O)c1`: the AC50 was > 26 µM (inactive). As for `O=C(CSC1c2ccccc2-c2ccccc21)N/N=C/c1ccccc1O`, the AC50 is > 26 µM (inactive).

In the case of `CC1=C(CC(=O)c2ccc(Cl)cc2)C(=O)c2ccccc2C1=O`, the AC50 was > 26 µM (inactive). As to `CN(Cc1c(F)cccc1Cl)C(=O)c1cc2ccccc2o1`, the AC50 is > 26 µM (inactive). Take `Cc1ccc(NC(=O)c2c(-c3c(F)cccc3Cl)noc2C)cc1F`: the AC50 is > 12 µM (inactive). Next, `CC(=O)NC(c1ccco1)c1cc(F)c2cccnc2c1O` (stereo unspecified): > 26 µM (inactive). Consider `O=C(N/N=C\c1c(O)ccc2ccccc12)c1ccc(Cn2cccn2)o1`, for which the AC50 was > 26 µM (inactive). As to `COc1ccc(-c2cn(Cc3ccc(C(=O)c4ccccc4)cc3)nn2)cc1`, the AC50 is > 26 µM (inactive). Regarding `Cc1ccc(NC2=C/C(=N/S(=O)(=O)c3cccs3)c3ccccc3C2=O)cc1`, the AC50 was > 26 µM (inactive). Under `CCn1nc(C)c(CNC(=O)c2ccc(OC3CCN(Cc4ccccn4)CC3)cc2)c1C` stands > 26 µM (inactive). As to `Cc1ccc(-c2nc(NC(=O)c3nn(C)cc3[N+](=O)[O-])sc2C)cc1`, the AC50 was > 26 µM (inactive).

With `CCOCCCNC(=O)c1c[nH]c2cc(OC)ccc2c1=O`, the AC50 was > 26 µM (inactive).

As for `Brc1ccc(CN2CCN(Cc3c[nH]c4ccccc34)CC2)cc1`, the AC50 was > 26 µM (inactive). Consider `CCCCCCCC(=O)Nc1ccc(C(=O)N/N=C/c2cccc([N+](=O)[O-])c2)cc1`, for which the AC50 is > 26 µM (inactive).

Take `CC(C)c1ccc(/C=C(\c2nc3ccccc3[nH]2)S(=O)(=O)c2ccccc2)cc1`: the AC50 is > 26 µM (inactive).

In the case of `OCCNc1nc(Nc2ccc(Cl)c(Cl)c2)nc2ccccc12`, the AC50 was > 26 µM (inactive).

In the case of `C=CCN(CC=C)CC(O)Cn1c2ccccc2c2ccccc21` (stereo unspecified), the AC50 was > 26 µM (inactive). `Cn1nccc1C(=O)NC1CCCc2c1cnn2-c1ccc(F)cc1F` (stereo unspecified): the AC50 was > 26 µM (inactive). Under `CC(C)(C)C1C/C(=C/c2ccccn2)C(=O)/C(=C/c2ccccn2)C1` (stereo unspecified) stands > 26 µM (inactive); under `CCOC(=O)C(=CNc1ccc(C(O)(C(=O)OCC)C(F)(F)F)cc1C)C(=O)OCC` (stereo unspecified), > 26 µM (inactive). With `CC(C)Cn1c(SCC(=O)N2CCc3ccccc3C2)nc2cc(Cl)ccc2c1=O`, the AC50 is > 26 µM (inactive). On to `CCOC(=O)C1CCCN(S(=O)(=O)c2ccc(S(=O)(=O)N(CC)CC)cc2)C1` (stereo unspecified), for which the AC50 is > 26 µM (inactive). Next, `COc1ccc(O)c(/C=N/NC(=S)Nc2cccnc2)c1`: > 26 µM (inactive); `COCCCNC(=O)Cn1nnc(-c2ccc(NC(=O)c3cccnc3)cc2)n1`: > 26 µM (inactive). Next, `C=CCN(CC=C)Cc1c[nH]c2ccccc12`: 26.3 µM. For `Cc1ccccc1/C=N/Nc1ccnc2cc(Cl)ccc12`, the AC50 was > 26 µM (inactive). Next, `O=C(N/N=C/c1ccc([N+](=O)[O-])o1)c1cc2ccccc2o1`: > 26 µM (inactive); `COc1ccc(/C=C/C(=O)c2ccc([N+](=O)[O-])o2)cc1`: > 26 µM (inactive). Take `COc1ccc(C[C@H]2CN3C(=NC[C@@H]3Cc3ccccc3)N2CCNC(=O)CCC2CCCCC2)cc1`: the AC50 is > 26 µM (inactive). For `O=C(NNC(=O)c1ccccc1OCc1ccccc1)c1ccccc1O`, the AC50 is > 26 µM (inactive).

On to `COc1ccc(OC)c(NC(=O)CN(Cc2ccc(F)cc2)C2CCCCC2)c1`, for which the AC50 is > 26 µM (inactive). On to `N=c1ccn(CC(=O)c2ccc(-c3ccccc3)cc2)cc1`, for which the AC50 was > 26 µM (inactive). For the molecule `COc1cc(NC2CCCCC2O)c2nc(-c3ccc(Cl)cc3)ccc2c1` (stereo unspecified), the AC50 was > 26 µM (inactive). `Cc1ccc(S(=O)(=O)/N=C2\C=C(Nc3cccc(C(=O)O)c3)C(=O)c3ccccc32)c(C)c1`: the AC50 was > 26 µM (inactive).

With `O=c1cc(N2CCN(c3cccc(Cl)c3)CC2)[nH]c(=O)n1C1CCCCC1`, the AC50 is > 26 µM (inactive). Take `CCN(CC)C(=O)c1cc([N+](=O)[O-])cc2c1-c1ccc([N+](=O)[O-])cc1C2=C(C#N)C#N`: the AC50 is > 26 µM (inactive).

For the molecule `Cc1csc2ncnc(N3CCN(S(=O)(=O)c4cccc(C(F)(F)F)c4)CC3)c12`, the AC50 was > 26 µM (inactive).

On to `CCN(CC)CCCNC1=C(Cl)C(=O)c2ccccc2C1=O`, for which the AC50 was > 26 µM (inactive).

As for `O=C(Cn1c(-c2ccccc2)c[n+]2ccsc12)c1ccc([N+](=O)[O-])cc1`, the AC50 was > 26 µM (inactive). Next, `CCCCOCCCNc1ncnc2c1[nH]c1ccccc12`: > 26 µM (inactive). In the case of `COC(=O)C1CN(C#N)N(c2ccc(Cl)cc2)C12c1ccccc1-c1ccccc12` (stereo unspecified), the AC50 is > 26 µM (inactive).

Take `c1ccc(-c2nnc(CSc3ccc4c(c3)OCCO4)o2)cc1`: the AC50 is > 26 µM (inactive).

Turning to `O=C(NN=C(c1ccccc1)c1ccccn1)c1ccccc1`, the AC50 is > 26 µM (inactive). Next, `CC(=O)Oc1c(C)cc(Cl)cc1C(=O)Nc1ccc([N+](=O)[O-])cc1Cl`: > 26 µM (inactive); `Cn1c(NN=O)nc2ccccc21`: > 26 µM (inactive); `O=C(c1ccc(F)c(S(=O)(=O)N2CCOCC2)c1)N1CCN(c2ccc(F)cc2)CC1`: > 26 µM (inactive).

The record behind these values is PubChem BioAssay AID463206 (Broad Institute, 2010).
